Data on two molecules can be found in patent US20060183714A1, “3-Alpha-glycosyl alpha, alpha-trehalose compound, process for producing the same, and use” (priority 2003, published 2006).

A short description of data set [1]: reducibility of the saccharide product. As to conditions: product as obtained. Format: physicochemical.
The nature of data set [2]: aminocarbonyl (Maillard) reaction of the saccharide product. Type of data set: physicochemical. The settings on record: product as obtained.

For the molecule `OC[C@H]1O[C@H](O[C@H]2O[C@H](CO)[C@@H](O)[C@H](O[C@H]3O[C@H](CO)[C@@H](O)[C@H](O)[C@H]3O)[C@H]2O)[C@H](O)[C@@H](O)[C@@H]1O` [Example 5, 3-α-glucosyl α,α-trehalose], the reducibility result in data set [1] is “substantially no reducibility”. For the same molecule, the aminocarbonyl reaction result in data set [2] is “hardly causes aminocarbonyl reaction”.

As for `OC[C@H]1O[C@H](OC[C@H]2O[C@H](O[C@@H]3[C@@H](O)[C@@H](O[C@H]4O[C@H](CO)[C@@H](O)[C@H](O)[C@H]4O)O[C@H](CO)[C@H]3O)[C@H](O)[C@@H](O)[C@@H]2O)[C@H](O)[C@@H](O)[C@@H]1O` [Example 3, 3-α-isomaltosyl α,α-trehalose], the reducibility result in data set [1] is on record as “substantially no reducibility”. Besides, the aminocarbonyl reaction result in data set [2] was “hardly causes amino carbonyl reaction”.
